Reference: patent US6534282B2, “Detection of hypertension using immunoreactive metabolic products” (priority 1999, dated 2003)

Experiments:
[1] = test system: anti-14,15-DHET IgG; test: Specificity of the 14,15-DHET competitive ELISA (eicosanoid panel); assay type: binding, goat; conditions: for cross-reaction with anti-14,15-DHET (in words) / cross-reaction with anti-14,15-DHET: 14,15-DHET ELISA; for cross-reactivity relative to 14,15-DHET: competition with 14,15-DHET for anti-14,15-DHET IgG in ELISA
Procedure: Synthetic 14, 15- or 8,9-DHETs were coupled to KLH using dicyclohexylcarbodiimide as previously described (25). The conjugate was used to immunize a goat and antibody titers were determined by ELISA using DHET-conjugated bovine serum albumin (BSA).
High-binding microplates were coated with protein G-purified IgG suspended in 1M carbonate, pH 9.0, (1 μg/well; 200 μl/well final volume) and then covered with paraflim. After overnight incubation at room temperature, the wells were gently washed five times with tris buffered saline (TBS), pH 7.5, containing 0.1% tween. Non-specific sites were blocked by the addition of 0.2 ml of 5% (w/v) nonfat dry milk in TBS. After two hours of incubation at room temperature, they were washed three times with TBS-tween. One μg/well of purified IgG was sufficient for quantitation of 0.5 to 100 pg/well of 14,15- or 8,9-DHETs. Samples and standards (150 μL) were added and the plates incubated for 20 minutes, after which 15 ng of the DHET-HRP conjugate was added in 50 μL of TBS. Following incubation for one hour to permit competitive binding to bound antibody, unbound material was removed by thorough washing of the wells with TBS-tween, and 150 μL of a colorimetric substrate for HRP [3,3′,5,5′ tetramethylbenzidine (TMB) and hydrogen peroxide] (Sigma Co.) was added. The plate is then incubated for 20 minutes, the reaction stopped by addition of 75 μL of 1N H2SO4, and the absorbance at 450 nm was determined using a microtiter plate reader. Under these assay conditions, the amount of color in a well is inversely proportional to the initial concentration of the sample or a standard ligand.
The specificity of the 14,15-DHET ELISA was investigated using authentic DHET and a panel of eicosanoids (Table 5) which, based on their structure, might be anticipated to compete with 14,15-DHET for binding to antibodies against 14,15-DHET. […] There was a slight cross-reaction with 8,9- and 11,12-DHET (3.3% for both).
A listing of the panel of eicosanoids used to analyze the specificity of the 14,15-DHET ELISA. These eicosanoids were selected based on the similarity of their structure to 14,15-DHET, as being anticipated to potentially compete with 14,15-DHET for binding to anti-14,15-DHET and thus interfere with such assays.

[2] = test system: AA epoxygenase; test: AA oxygenase activity assay of hepatic microsomes using 14C AA, from treated rats; assay type: in vivo, rat; conditions: hepatic microsomes of rats treated i.p. 10 mg/kg/d for 4 days; incubation 10 min
Procedure: (§1) Male and female Sprague-Dawley (SD) rats (160-200 g) were purchased from Charles River Laboratories (Wilmington, Mass.) and housed in a controlled environment and fed standard laboratory chow for at least 3 days before use.
Microsomes were prepared from rat livers and kidneys as described previously (27,28). Microsomes were stored at −80° C. in 50 mM Tris acetate buffer, pH 7.4, containing 1 mM EDTA and 20% glycerol until use.
After incubation of the microsomes (1 mg protein/ml, final concentration), 0.05 M Tris-HCl buffer, pH 7.5, containing 0.15 m KCl, 10 mM MgC12, 8 mM sodium isocitrate and 0.5 IU of isocitrate dehydrogenase and, incubated with ^14C AA (1 μCi/μmol, 100 μM, final concentration) in the presence of 1 mM NADPH at 30° C. The reaction products were taken at five and ten minutes and extracted into ethyl ether containing 0.05% acetic acid. The AA oxygenase metabolites were separated by HPLC and quantitated by a radiomatic Flo-One β-detector.
The reaction products were taken at 5 and 10 min. and extracted into ethyl ether containing 0.05% acetic acid). The AA oxygenase metabolites were separated by HPLC and quantitated by a radiomatic Flo-One B-detector.

[3] = test system: CYP2C23; test: Western blot of hepatic microsomes for CYP2C23; assay type: in vivo, rat; conditions: after 4 days of treatment, 10 mg/kg/day i.p., FIG. 4
Procedure: as §1
SDS-PAGE was carried out on 10% acrylamide gel. The separated proteins were electroblotted onto cellulose membrane and Western blot analyses were carried out using alkaline phosphatase system as previously described (29). Visualization of P450 bands was accomplished by incubation with a mixture of 5-bromo4-chloro-3-indolylphosphatate p-toluidine and nitrobluetetrazolium.

[4] = test system: AA epoxygenase; conditions: rats; cited from earlier work

Structure (SMILES) | cross-reaction with anti-14,15-DHET (in words) [1] | cross-reactivity relative to 14,15-DHET [1] [%] | other results
CCCCC[C@H](O)/C=C/C=C\C/C=C\C=C\[C@@H](O)CCCC(=O)O [5(s)15(S)DiHETE] | did not cross-react | 0.20 | 
CCCCC/C=C\C/C=C\C/C=C\CC(O)C(O)CCCC(=O)O (stereo not shown) [5,6-DHET] | did not cross-react | 0.02 | 
CCCCC/C=C\C/C=C\C/C=C\CC1OC1CCCC(=O)O (stereo not shown) [5,6-EET] | did not cross-react | 0.02 | 
CCCCC[C@H](O)/C=C/[C@@H]1[C@@H](CC(=O)CCCCC(=O)O)[C@@H](O)C[C@H]1O [6-keto-PGF1α] | did not cross-react | <0.01 | 
CCCCCC=CCC=CCC(O)C(O)CC=CCCCC(=O)O (stereo not shown) [8,9-DHET, 8,9-dihydroxyeicosatrienoic acid] |  | 3.30 | cross-reaction with anti-14,15-DHET [1]: 3.3%
CCCCC/C=C\C/C=C\CC1OC1C/C=C\CCCC(=O)O (stereo not shown) [8,9-EET] | did not cross-react | 0.40 | 
CCCCC/C=C\CC(O)C(O)C/C=C\C/C=C\CCCC(=O)O (stereo not shown) [11,12-DHET] |  | 3.30 | cross-reaction with anti-14,15-DHET [1]: 3.3%
CCCCC/C=C\C[C@H]1O[C@H]1C/C=C\C/C=C\CCCC(=O)O [11,12-EET] | did not cross-react | 0.05 | 
CCCCCC(O)C(O)CC=CCC=CCC=CCCCC(=O)O (stereo not shown) [14,15-DHET, 14,15-dihydroxyeicosatrienoic acid] |  | 100.00 | 
CCCCCC1OC1C/C=C\C/C=C\C/C=C\CCCC(=O)O (stereo not shown) [14,15-EET] | did not cross-react | 1.50 | 
CCCCC[C@H](O)/C=C/C=C\C/C=C\C/C=C\CCCC(=O)O [15(S)HETE] | did not cross-react | 1.00 | 
C[C@@H]1C[C@H]2[C@@H]3CCC4=CC(=O)C=C[C@]4(C)[C@@]3(F)[C@@H](O)C[C@]2(C)[C@@]1(O)C(=O)CO [DEX, dexamethasone] |  |  | 11,12-EET formed [2]: 73 ng EET formed/mg protein; 14,15-EET formed [2]: 97 ng EET formed/mg protein; hepatic CYP2C23 protein level [3]: decreased dramatically
CCCCC[C@H](O)/C=C/[C@H]1[C@H](O)CC(=O)[C@@H]1C/C=C\CCCC(=O)O [PGE2] | did not cross-react | <0.01 | 
CCCCC[C@H](O)/C=C/[C@@H]1[C@@H](C/C=C\CCCC(=O)O)[C@@H](O)C[C@H]1O [PGF2α] | did not cross-react | <0.01 | 
CCCCC[C@H](O)/C=C/[C@H]1OC(O)C[C@H](O)[C@@H]1C/C=C\CCCC(=O)O (stereo partly shown) [Thromboxane B2] | did not cross-react | 0.02 | 
CCCCC/C=C\C/C=C\C/C=C\C/C=C\CCCC(=O)O [arachidonic acid] | did not cross-react | 0.05 | 
Clc1ccccc1C(c1ccccc1)(c1ccccc1)n1ccnc1 [clotrimazole] |  |  | blood pressure effect [4]: induced salt-sensitive and clotrimazoledependent hypertension; urinary excretion of Na+, EETs and DHETs [4]: decreased
